# Laboratory results reported in US10159254B2, “Weed control methods” (Syngenta Participations AG, priority 2013, dated 2018).
# “And” between values parts separate entries of the source, which are not always exact repeats. Equal values may be shown once.
# Tests used:
# [1] = test system: common waterhemp (Amaranthus rudis); test: Greenhouse weed control: HPPD inhibitors with or without Sequestrene 138Fe, common waterhemp; format: in vivo; settings: common waterhemp control 17 DAT
# Description: A greenhouse experiment is conducted to determine the effect of chelated iron on weed control in the greenhouse. Velvetleaf (Abutilon theophrasti) and common waterhemp (Amaranthus rudis) plants are grown in 4×4-inch pots filled with a greenhouse potting mix. When the plants reached the 2 to 3 inch height (2 to 3 leaf stage), they are sprayed with a reduced rate of an HPPD inhibitor alone or in a tank mix combination with Sequestrene 138Fe at 140 g/ha (equivalent to 8.4 g iron/hectare) or 280 g/ha (equivalent to 16.8 g iron/hectare). […] Observations on percent control are recorded 12, 19, and 25 days after treatment.
# Effect of Tank Mix Applications of Various HPPD Inhibitors and Sequestrene 138Fe on Common Waterhemp Control. Injury Assessed 17 DAT
# An experiment is performed to look at the effect of applying iron chelates on control of Common Waterhemp using HPPD-inhibiting herbicides. Experiment design is analogous to that outlined in Experiment 3 above.
# [2] = test system: untransformed clonal tobacco plants (WT); test: Wild type tobacco herbicide damage, mesotrione with or without Sequestrene 138; format: in vivo, Nicotiana tabacum cv Samsun (tobacco)
# Description: Effect of Iron Chelates in Mitigating Foliar Bleaching Injury from HPPD Inhibiting Herbicides Across Various Transgenic HPPD Tolerant Tobacco Events Over-expressing HPPD Genes from Different Origins
# This experiment is carried out to determine whether iron chelates can mitigate the bleaching injury from HPPD inhibiting herbicides across various transgenic HPPD tolerant tobacco events over-expressing HPPD genes from different origins. These experiments are conducted using three distinct HPPD-overexpressing Nicotiana tabacum cv Samsun (tobacco) lines, one over-expressing wheat HPPD, one overexpressing an Avena HPPD and one over-expressing a HPPD from a bacterial source, Pseudomonas florescens. For each transgenic line, five identical clonal plants were sprayed with each herbicide treatment. Two untransformed clonal tobacco plants are also sprayed ([…]) with each herbicide treatment. Assessments are carried out 3, 7 and 14 days after herbicide application.
# All scores represent average % herbicide damage. […] An equivalent safening effect is not observed when the same chemical treatments are applied to wild type plants.
# [3] = test system: SYHT04R soybeans; test: Greenhouse: Sequestrene 138Fe safening of HPPD-inhibitors, injury 6 days after treatment; format: in vivo, soybean; settings: 6 days after treatment (maximum injury), mesotrione 420, bicyclopyrone 200, isoxaflutole 280 g/ha
# Description: Effect of Sequestrene® 138Fe on Various HPPD-inhibitors in SYHT04R Soybeans. Maximum Injury Assessed 6 Days after Treatment
# A greenhouse experiment is conducted to determine if Sequestrene® 138Fe was effective in safening various other HPPD herbicide-tolerant soybean events, such as SYHT04R.
# SYHT04R soybean plants are grown in 4×4-inch pots filled with a greenhouse potting mix. When the plants reached the V2-V3 growth stage, they are sprayed with an HPPD inhibitor alone or in combination with Sequestrene® 138Fe at 1120 g/ha (equivalent to 67.2 g iron/ha). […] Observations on percent injury are recorded at 6 and 20 days after treatment. Data presented is from the 6 days after treatment rating representing the maximum injury observed during the experiment.
# [4] = test system: SYHT0H2 soybeans; test: Greenhouse: tank-mix and sequential Sequestrene 138Fe, HPPD-inhibitor maximum injury; format: in vivo, soybean; settings: mesotrione 420, bicyclopyrone 200, tembotrione 368 g ai/ha
# Description: Effect of Tank-mix and Sequential Application of Sequestrene® 138 on Mesotrione (Applied as Callisto®)—Maximum Injury in SYHT0H2 Soybeans
# An experiment is conducted in the greenhouse to determine the effect of chelated iron (Sequestrene 138Fe containing 6% iron) on HPPD-inhibitor injury to SYHT0H2 soybeans. Soybeans are grown in pots filled with a greenhouse potting mix. When the plants reach the V2-V3 stage, they are sprayed with an HPPD-inhibitor herbicide applied alone (Treatment 1), or in tank mixture with Sequestrene 138Fe (Treatment 2), or sequentially with Sequestrene 138Fe applied 1 day before the HPPD inhibitor (Treatment 3). Sequestrene 138Fe is applied at 2240 g/ha (equivalent to 134 g iron/ha). All treatments are applied with liquid ammonium sulfate @ 2.5% v/v and a non-ionic surfactant (NIS) @ 0.25% v/v in 150 L/ha water. Observations on percent injury are recorded 5, 11, or 22 days after treatment. Data presented are maximum injury observed during the trial.
smiles,measurement,setting,value
"CS(=O)(=O)c1ccc(C(=O)C2C(=O)CCCC2=O)c([N+](=O)[O-])c1 [Mesotrione, mesotrione]",% Injury,"[1]; Sequestrene 138Fe 0 g/ha, g ai/ha: mesotrione 26, isoxaflutole 26, bicyclopyrone 50, tembotrione 46, pyrasulfatole 22, topramezone 18",77%
same,% Injury,"[1]; Sequestrene 138Fe 140 g/ha tank mix, mesotrione 26, isoxaflutole 26 g ai/ha",78%
same,% herbicide damage,"[2]; Trt 1: mesotrione 50 gai/ha alone, 3DAA",60% and 65%
same,% herbicide damage,"[2]; Trt 1: mesotrione 50 gai/ha alone, 7DAA",80%
same,% herbicide damage,"[2]; Trt 1: mesotrione 50 gai/ha alone, 14DAA",85%
same,% herbicide damage,"[2]; Trt 2: mesotrione 100 gai/ha alone, 3DAA",70%
same,% herbicide damage,"[2]; Trt 2: mesotrione 100 gai/ha alone, 7DAA",80%
same,% herbicide damage,"[2]; Trt 2: mesotrione 100 gai/ha alone, 14DAA",85% and 90%
same,% herbicide damage,"[2]; Trt 3: mesotrione 150 gai/ha alone, 3DAA",55% and 60%
same,% herbicide damage,"[2]; Trt 3: mesotrione 150 gai/ha alone, 7DAA",80%
same,% herbicide damage,"[2]; Trt 3: mesotrione 150 gai/ha alone, 14DAA",85%
same,% herbicide damage,"[2]; Trt 4: mesotrione 50 gai/ha + Sequestrene 138 1000 g/ha, 3DAA",50%
same,% herbicide damage,"[2]; Trt 4: mesotrione 50 gai/ha + Sequestrene 138 1000 g/ha, 7DAA",80%
same,% herbicide damage,"[2]; Trt 4: mesotrione 50 gai/ha + Sequestrene 138 1000 g/ha, 14DAA",70% and 75%
same,% herbicide damage,"[2]; Trt 5: mesotrione 100 gai/ha + Sequestrene 138 1000 g/ha, 3DAA",60%
same,% herbicide damage,"[2]; Trt 5: mesotrione 100 gai/ha + Sequestrene 138 1000 g/ha, 7DAA",80%
same,% herbicide damage,"[2]; Trt 5: mesotrione 100 gai/ha + Sequestrene 138 1000 g/ha, 14DAA",75% and 85%
same,% herbicide damage,"[2]; Trt 6: mesotrione 150 gai/ha + Sequestrene 138 1000 g/ha, 3DAA",60%
same,% herbicide damage,"[2]; Trt 6: mesotrione 150 gai/ha + Sequestrene 138 1000 g/ha, 7DAA",80%
same,% herbicide damage,"[2]; Trt 6: mesotrione 150 gai/ha + Sequestrene 138 1000 g/ha, 14DAA",85%
same,% herbicide damage,"[2]; Trt 7: mesotrione 200 gai/ha alone, 3DAA",60%
same,% herbicide damage,"[2]; Trt 7: mesotrione 200 gai/ha alone, 7DAA",80%
same,% herbicide damage,"[2]; Trt 7: mesotrione 200 gai/ha alone, 14DAA",85%
same,% herbicide damage,"[2]; Trt 8: mesotrione 300 gai/ha alone, 3DAA",65%
same,% herbicide damage,"[2]; Trt 8: mesotrione 300 gai/ha alone, 7DAA",80%
same,% herbicide damage,"[2]; Trt 8: mesotrione 300 gai/ha alone, 14DAA",90% and 85%
same,% herbicide damage,"[2]; Trt 9: mesotrione 400 gai/ha alone, 3DAA",55% and 60%
same,% herbicide damage,"[2]; Trt 9: mesotrione 400 gai/ha alone, 7DAA",80%
same,% herbicide damage,"[2]; Trt 9: mesotrione 400 gai/ha alone, 14DAA",85%
same,% herbicide damage,"[2]; Trt 10: mesotrione 200 gai/ha + Sequestrene 138 1000 g/ha, 3DAA",55% and 60%
same,% herbicide damage,"[2]; Trt 10: mesotrione 200 gai/ha + Sequestrene 138 1000 g/ha, 7DAA",80%
same,% herbicide damage,"[2]; Trt 10: mesotrione 200 gai/ha + Sequestrene 138 1000 g/ha, 14DAA",85%
same,% herbicide damage,"[2]; Trt 11: mesotrione 300 gai/ha + Sequestrene 138 1000 g/ha, 3DAA",50% and 60%
same,% herbicide damage,"[2]; Trt 11: mesotrione 300 gai/ha + Sequestrene 138 1000 g/ha, 7DAA",80%
same,% herbicide damage,"[2]; Trt 11: mesotrione 300 gai/ha + Sequestrene 138 1000 g/ha, 14DAA",90% and 85%
same,% herbicide damage,"[2]; Trt 12: mesotrione 400 gai/ha + Sequestrene 138 1000 g/ha, 3DAA",55% and 60%
same,% herbicide damage,"[2]; Trt 12: mesotrione 400 gai/ha + Sequestrene 138 1000 g/ha, 7DAA",80%
same,% herbicide damage,"[2]; Trt 12: mesotrione 400 gai/ha + Sequestrene 138 1000 g/ha, 14DAA",90% and 85%
same,% herbicide damage,"[2]; Trt 13: mesotrione 400 gai/ha alone, 3DAA",50% and 55%
same,% herbicide damage,"[2]; Trt 13: mesotrione 400 gai/ha alone, 7DAA",80%
same,% herbicide damage,"[2]; Trt 13: mesotrione 400 gai/ha alone, 14DAA",95% and 90%
same,% herbicide damage,"[2]; Trt 14: mesotrione 500 gai/ha alone, 3DAA",55% and 60%
same,% herbicide damage,"[2]; Trt 14: mesotrione 500 gai/ha alone, 7DAA",80%
same,% herbicide damage,"[2]; Trt 14: mesotrione 500 gai/ha alone, 14DAA",85%
same,% herbicide damage,"[2]; Trt 15: mesotrione 600 gai/ha alone, 3DAA",55%
same,% herbicide damage,"[2]; Trt 15: mesotrione 600 gai/ha alone, 7DAA",80%
same,% herbicide damage,"[2]; Trt 15: mesotrione 600 gai/ha alone, 14DAA",85%
same,% herbicide damage,"[2]; Trt 16: mesotrione 400 gai/ha + Sequestrene 138 1000 g/ha, 3DAA",60% and 55%
same,% herbicide damage,"[2]; Trt 16: mesotrione 400 gai/ha + Sequestrene 138 1000 g/ha, 7DAA",80%
same,% herbicide damage,"[2]; Trt 16: mesotrione 400 gai/ha + Sequestrene 138 1000 g/ha, 14DAA",90% and 95%
same,% herbicide damage,"[2]; Trt 17: mesotrione 500 gai/ha + Sequestrene 138 1000 g/ha, 3DAA",50% and 60%
same,% herbicide damage,"[2]; Trt 17: mesotrione 500 gai/ha + Sequestrene 138 1000 g/ha, 7DAA",80%
same,% herbicide damage,"[2]; Trt 17: mesotrione 500 gai/ha + Sequestrene 138 1000 g/ha, 14DAA",90%
same,% herbicide damage,"[2]; Trt 18: mesotrione 600 gai/ha + Sequestrene 138 1000 g/ha, 3DAA",55%
same,% herbicide damage,"[2]; Trt 18: mesotrione 600 gai/ha + Sequestrene 138 1000 g/ha, 7DAA",80%
same,% herbicide damage,"[2]; Trt 18: mesotrione 600 gai/ha + Sequestrene 138 1000 g/ha, 14DAA",90% and 85%
same,% Injury,[3]; Sequestrene 138Fe 0 g/ha,23%
same,% Injury,[3]; Sequestrene 138Fe 1120 g/ha,3%
same,% Maximum Injury,"[4]; Sequestrene 138Fe 2240 g/ha applied 1 day before herbicide (Treatment 3, sequential)",7%
same,% Maximum Injury,"[4]; herbicide alone (Treatment 1), maximum of 5, 11, 22 days after treatment",20%
same,% Maximum Injury,"[4]; tank mix with Sequestrene 138Fe 2240 g/ha (Treatment 2, simultaneous)",0%
